The target of one assay is T1, TDO2 in 293-TDO2 cells (Homo sapiens, UniProt P48775).
T1 construct: expressed in transfected cells; host or cells: HEK293 (ATCC), stably transfected
The experiment in a line: 293-TDO2 cell-based TDO2 Kyn (kynurenine) production assay. The gist of the method:
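HEK293 cells stably transfected to express tryptophan 2,3-dioxygenase were seeded at 10000 per well in 96-well plates in phenol red-free DMEM with 10% FBS. After 4 hours, DMSO-diluted compound dilutions were added, and cells were kept 48 hours at 37 °C, 5% CO2. Supernatant was deproteinised with trichloroacetic acid, and kynurenine was measured at 480 nm after adding 2% 4-(dimethylamino)benzaldehyde. Potency came from four-parameter logistic fits in XLfit.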

Assay [1] deals with T2, cellular IDO1 in HeLa cells (Homo sapiens, UniProt P14902).
T2 construct: endogenous in cells; host or cells: HeLa (ATCC), induced with human recombinant IFN-γ
The experiment in a line: HeLa cell-based IDO1 Kyn (kynurenine) production assay. The settings on record: IDO1 induced by IFN-γ, 48 hours, read-out: cell-based EC50 value (IDO1 expressed Hela cells). The protocol: HeLa Cell-Based IDO1 Kyn (Kynurenine) Production Assay:
The inhibitory activity of IDO1 inhibitors is determined by using a colorimetric reaction to measure Kyn generated from L-Trp (L-Tryptophon) oxidation by cellular IDO1 in HeLa cells after induction of IDO1 expression by IFN-γ.
Hela cells were obtained from the American Type Culture Collection and recovered in 10% FBS-containing phenol red-free DMEM medium. Cells were plated onto a 96-well plate (100 μl/well) at 8000 cells per well and kept at 37° C. in a humidified incubator supplied with 5% CO2 4 hours later, Human recombinant IFN-γ (8901SC, CST) was added to cells (final concentration 100 ng/mL) to stimulate endogenous IDO11. Compounds at different concentrations diluted in dimethylsulfoxide (DMSO) were added simultaneously with IFN-γ and 0.4 mM L-Trp. Cells were kept at 37° C. in a humidified incubator supplied with 5% CO2. After 48 hours of incubation, 100 μl supernatant from each well was removed to a new plate. The protein in the medium was precipitated with the addition of 8 μl 6N trichloroacetic acid. The plate was incubated at 60° C. for 30 minutes and then centrifugation at 2500 rpm for 10 minutes to remove sediments. […] The absorbance at 480 nm wavelength derived from Kyn was measured using a PHERAstar FS plate reader (BMG LABTECH). […]

The target of assay [2] is T3, IDO1 (Homo sapiens, UniProt P14902). Nature of the assay: Hela cell-based IDO1 assay. Conditions: Hela cells. The gist of the method: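 HeLa cells were seeded at 8000 per well in 96-well plates in phenol red-free DMEM with 10% FBS. After 4 hours, DMSO-diluted compound dilutions were added with IFN-γ (final 100 ng/mL) and 0.4 mM L-Trp, and cells were kept 48 hours at 37 °C, 5% CO2. Supernatant was deproteinised with trichloroacetic acid, and kynurenine was measured at 480 nm after adding 2% 4-(dimethylamino)benzaldehyde. Potency came from four-parameter logistic fits in XLfit.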

Assay [3] addresses T3, IDO1. The experiment in a line: IDO1 enzymatic assay. The class given is biochemical. Details: His tag (N); made in house; host or cells: E. coli. Conditions: read-out: Enzyme IC50 IDO1. The essentials: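 Recombinant N-terminally His-tagged IDO1 purified from E. coli (50 nM) was incubated with compound or DMSO and 1.3 mM D-tryptophan, 5 mM L-ascorbic acid, methylene blue and 0.4 mg/mL catalase. The buffer was 50 mM potassium phosphate pH 7.5 with 0.1% BSA, at 24 °C for 1.5 hours. N'-formylkynurenine formation was then read continuously at 321 nm for 1 hour, and activity was taken as the slope. IC50 was calculated from remaining enzyme activity across increasing compound concentrations.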

The target in assay [4] is T4, cellular TDO2 in HEK293-TDO2 cells (Homo sapiens, UniProt P48775).
T4 construct: expressed in transfected cells; host or cells: HEK293 (ATCC), stably transfected
Nature of the assay: 293-TDO2 cell-based assay (Kyn colorimetric). Conditions: 48 hours of incubation. The essentials: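 Kyn formed from L-Trp was read colorimetrically at 480 nm (TCA deproteinisation, then 2% 4-(dimethylamino)benzaldehyde). Compounds were added to 293-TDO2 cells 4 h post-seeding and left 48 h at 37° C. A four-parameter logistic model gave IC50 values.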

The target of another assay is T5, TDO (Homo sapiens, UniProt P48775).
T5 construct: His tag (C); made in house; host or cells: E. coli
The experiment in a line: TDO enzymatic assay. The class given is biochemical. The settings on record: read-out: Enzyme IC50 TDO. The gist of the method: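 Recombinant C-terminally His-tagged TDO purified from E. coli (100 nM) was tested with 0.5 mM L-tryptophan (Km concentration). Otherwise the IDO1 enzymatic set-up was used: ascorbic acid, methylene blue, catalase, and potassium phosphate pH 7.5 with BSA, incubated 1.5 hours. N'-formylkynurenine absorbance was read continuously at 321 nm, and activity was taken as the slope. IC50 was calculated from remaining enzyme activity across increasing compound concentrations.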

Assay [5] addresses T3, IDO1. Nature of the assay: IDO1 enzymatic assay. More on the design: His tag (N); made in house; host or cells: E. coli. The settings on record: recombinant IDO1, 1.3 mM D-tryptophan. The class given is biochemical. As for the experimental part:
Recombinant IDO1 was overexpressed and purified from E. coli cells with an N-terminal His tag. IDO1 enzymatic assay was carried out using a methodology similar to described in the literature (J. Biol. Chem. (1980), 255, 1339-1345.). The reaction mixture contains 50 nM IDO1, 1.3 mM D-tryptophan, 5 mM L-ascorbic acid, […] methylene Blue, 0.4 mg/mL catalase and compound (or DMSO) in a buffer containing 50 mM potassium phosphate pH 7.5 and 0.1% BSA. After incubation at 24′C for 1.5 hours, absorbance of the reaction mixture was continuously read at 321 nm to monitor the formation of N′-formylkynurenine by a FULOstar OMEGA plate reader (BMG LABTECH) for 1 hour. The enzymatic activity was determined by measuring the slope of the linear absorbance increase as a function of time. The IC50s are calculated based on remaining enzyme activity in the presence of increasing concentrations of compounds.

Read-outs that look alike come from different tables or passages of the source.

The term EC50 denotes the concentration giving half of the maximal effect. A word on the IC50: it is the point on the concentration scale where inhibition reaches its midpoint.

T3 sequence (P14902 whole entry): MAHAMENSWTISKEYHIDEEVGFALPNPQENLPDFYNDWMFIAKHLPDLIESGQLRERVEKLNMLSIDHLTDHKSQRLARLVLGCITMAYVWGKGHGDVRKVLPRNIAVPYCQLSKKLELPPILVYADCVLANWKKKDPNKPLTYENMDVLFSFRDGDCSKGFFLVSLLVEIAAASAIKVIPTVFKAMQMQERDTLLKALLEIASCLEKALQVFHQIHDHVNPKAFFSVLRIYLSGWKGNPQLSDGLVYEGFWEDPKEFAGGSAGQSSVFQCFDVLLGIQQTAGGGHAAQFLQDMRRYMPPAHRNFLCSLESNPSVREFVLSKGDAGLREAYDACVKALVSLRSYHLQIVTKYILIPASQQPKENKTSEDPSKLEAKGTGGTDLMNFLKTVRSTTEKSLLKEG
T2 sequence (P14902 whole entry): as above
T1 sequence (P48775 whole entry): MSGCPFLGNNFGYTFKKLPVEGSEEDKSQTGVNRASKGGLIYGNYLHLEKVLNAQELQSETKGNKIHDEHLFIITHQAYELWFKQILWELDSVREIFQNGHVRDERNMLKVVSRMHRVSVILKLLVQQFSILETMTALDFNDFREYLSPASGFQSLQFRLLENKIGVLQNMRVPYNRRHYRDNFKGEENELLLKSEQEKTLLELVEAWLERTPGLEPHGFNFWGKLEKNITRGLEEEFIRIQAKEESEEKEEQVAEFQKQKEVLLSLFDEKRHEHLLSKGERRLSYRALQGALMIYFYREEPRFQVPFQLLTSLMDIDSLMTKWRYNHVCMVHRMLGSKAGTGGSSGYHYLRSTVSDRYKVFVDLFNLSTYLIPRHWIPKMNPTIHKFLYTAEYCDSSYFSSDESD
T4 sequence (P48775 whole entry): as above
T5 sequence (P48775 whole entry): as above

With `OC(c1c(C2CC2)ccc2cncn12)[C@H]1CC[C@H](c2ccc(Cl)cc2)CC1` (single isomer, unassigned) [Example D103c], the concentration giving a half-maximal response (EC50) was over 10000 nM on TDO2 in 293-TDO2 cells, 130 nM in assay [1], 131 nM on IDO1 [2] and over 10000 nM in assay [4]. The IC50 was 22 nM at IDO1 [3], 8100 nM at TDO and 22 nM on IDO1 [5].

On to `OC(c1c(C2CC2)ccc2cncn12)[C@H]1CC[C@@H](c2ccc(Cl)cc2)CC1` (single isomer, unassigned) [Example D103d], for which the EC50 (on TDO2 in 293-TDO2 cells; in assay [1]) was over 10000 nM throughout. The 50% inhibitory concentration (IC50) at IDO1 [3] and on IDO1 [5] was 67 nM throughout.
